Test results as given in US20210045385A1, “PYRIDAZINONE-SUBSTITUTED KETOXIMES AS HERBICIDES” (FMC Corporation, priority 2018, published 2021).

Assays:
Format in all cases: in vivo
[1] = tested on: sedge umbrella (small-flower umbrella sedge, Cyperus difformis); assay: Test D flooded paddy test, visual plant response rating; conditions: 250 g ai/ha, scale 0 to 100 (0 no effect, 100 complete control), 13 to 15 d
Summary of the method: (§1)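 Visual injury scores, 0 (no effect) to 100 (complete control), were assigned after 13 to 15 d in the greenhouse by comparison with controls. Test compounds had been added to paddy water covering soil by 3 cm at the 2-leaf stage.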

rice (Oryza sativa) = assay: as above; conditions: 250 g ai/ha, scale 0 to 100 (0 no effect, 100 complete control), 13 to 15 d
Summary of the method: as §1

[2] = tested on: barnyardgrass (Echinochloa crus-galli); assay: as above; conditions: 250 g ai/ha, scale 0 to 100 (0 no effect, 100 complete control), 13 to 15 d
Summary of the method: as §1

[3] = tested on: duck salad (Heteranthera limosa); assay: as above; conditions: 250 g ai/ha, scale 0 to 100 (0 no effect, 100 complete control), 13 to 15 d
Summary of the method: as §1

[4] = tested on: blackgrass (Alopecurus myosuroides); assay: Test C postemergence, visual plant response rating
Summary of the method: (§2)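 Visual injury on a 0 (no effect) to 100 (complete control) scale versus untreated controls, scored approximately 10 d after treatment under greenhouse conditions. Treatments used surfactant-containing non-phytotoxic solvent formulations, sprayed onto loam–sand soil preemergence or onto one- to two-leaf plants 2–10 cm tall postemergence.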

[5] = tested on: galium (catchweed bedstraw, Galium aparine); assay: Test C postemergence, visual plant response rating
Summary of the method: as §2

[6] = tested on: foxtail, giant (giant foxtail, Setaria faberi); assay: Test C postemergence, visual plant response rating
Summary of the method: as §2

[7] = tested on: pigweed (Amaranthus retroflexus); assay: Test C postemergence, visual plant response rating
Summary of the method: as §2

[8] = tested on: ragweed (common ragweed, Ambrosia artemisiifolia); assay: Test C postemergence, visual plant response rating
Summary of the method: as §2

[9] = tested on: wheat (Triticum aestivum); assay: Test C postemergence, visual plant response rating
Summary of the method: as §2

kochia (Bassia scoparia) [10] = assay: Test C postemergence, visual plant response rating
Summary of the method: as §2

[11] = tested on: barnyardgrass (Echinochloa crus-galli); assay: Test C postemergence, visual plant response rating
Summary of the method: as §2

corn (Zea mays) = assay: Test C postemergence, visual plant response rating
Summary of the method: as §2

[12] = tested on: Italian ryegrass (Lolium mutiflorum); assay: Test C postemergence, visual plant response rating
Summary of the method: as §2

[13] = tested on: foxtail, giant (giant foxtail, Setaria faberi); assay: Test C preemergence, visual plant response rating
Summary of the method: as §2

[14] = tested on: pigweed (Amaranthus retroflexus); assay: Test C preemergence, visual plant response rating
Summary of the method: as §2

[15] = tested on: ragweed (common ragweed, Ambrosia artemisiifolia); assay: Test C preemergence, visual plant response rating; conditions: Test C, 0 is no effect, 100 is complete control
Summary of the method: as §2

kochia (Bassia scoparia) [16] = assay: Test C preemergence, visual plant response rating
Summary of the method: as §2

[17] = tested on: barnyardgrass (Echinochloa crus-galli); assay: Test C preemergence, visual plant response rating
Summary of the method: as §2

[18] = tested on: Italian ryegrass (Lolium mutiflorum); assay: Test C preemergence, visual plant response rating
Summary of the method: as §2

[19] = Test C, postemergence, 125 g ai/ha
[20] = Test C, 31 g ai/ha, 0 is no effect, 100 is complete control
[21] = Test C, 125 g ai/ha, 0 is no effect, 100 is complete control

Compound	Plant response rating, Sedge, Umbrella (Flood) [1]	Plant response rating, Rice (Flood) (rice (Oryza sativa))	Plant response rating, Barnyardgrass (Flood) [2]	Plant response rating, Ducksalad (Flood) [3]	Blackgrass plant response rating (0 to 100 scale) ([4]; Postemergence, 31 g ai/ha)	Blackgrass plant response rating (0 to 100 scale) [4, 19]	Galium plant response rating (0 to 100 scale) ([5]; Postemergence, 31 g ai/ha)	Galium plant response rating (0 to 100 scale) [5, 19]	Foxtail, Giant plant response rating (0 to 100 scale) ([6]; Postemergence, 31 g ai/ha)	Foxtail, Giant plant response rating (0 to 100 scale) [6, 19]	Pigweed plant response rating (0 to 100 scale) ([7]; Postemergence, 31 g ai/ha)	Pigweed plant response rating (0 to 100 scale) [7, 19]	Ragweed plant response rating (0 to 100 scale) ([8]; Postemergence, 31 g ai/ha)	Ragweed plant response rating (0 to 100 scale) [8, 19]	Wheat plant response rating (0 to 100 scale) ([9]; Postemergence, 31 g ai/ha)	Wheat plant response rating (0 to 100 scale) [9, 19]	Kochia plant response rating (0 to 100 scale) (kochia (Bassia scoparia) [10]; Postemergence, 31 g ai/ha)	Kochia plant response rating (0 to 100 scale) (kochia (Bassia scoparia) [10]; [19])	Barnyardgrass plant response rating (0 to 100 scale) ([11]; Postemergence, 31 g ai/ha)	Barnyardgrass plant response rating (0 to 100 scale) [11, 19]	also measured
CO/N=C(/c1cccc(Br)c1)c1c(O)c(C)nn(C)c1=O [Compound 234]	0	0	0	0	10	0	80	90	10	30	10	30	40	80	0	0	30	70	10	30	Corn plant response rating (0 to 100 scale) (corn (Zea mays); Postemergence, 31 g ai/ha): 0; Corn plant response rating (0 to 100 scale) (corn (Zea mays); [19]): 0; Ryegrass, Italian plant response rating (0 to 100 scale) ([12]; Postemergence, 31 g ai/ha): 50; Ryegrass, Italian plant response rating (0 to 100 scale) [12, 19]: 70; Foxtail, Giant plant response rating (0 to 100 scale) [13, 20]: 0; Foxtail, Giant plant response rating (0 to 100 scale) [13, 21]: 20; Pigweed plant response rating (0 to 100 scale) [14, 20]: 0; Pigweed plant response rating (0 to 100 scale) [14, 21]: 0; Ragweed plant response rating (0 to 100 scale) ([15]; 31 g ai/ha): 10; Ragweed plant response rating (0 to 100 scale) ([15]; 125 g ai/ha): 40; Kochia plant response rating (0 to 100 scale) (kochia (Bassia scoparia) [16]; [20]): 0; Kochia plant response rating (0 to 100 scale) (kochia (Bassia scoparia) [16]; [21]): 0; Barnyardgrass plant response rating (0 to 100 scale) [17, 20]: 0; Barnyardgrass plant response rating (0 to 100 scale) [17, 21]: 0; Ryegrass, Italian plant response rating (0 to 100 scale) [18, 20]: 40; Ryegrass, Italian plant response rating (0 to 100 scale) [18, 21]: 90
CCO/N=C(\c1c(O)cnn(C)c1=O)c1ccc(F)c2ccccc12 [Compound 269]	0	0	0	0	0	30	50	80	10	40	50	60	10	40	0	0	0	30	0	0	Corn plant response rating (0 to 100 scale) (corn (Zea mays); Postemergence, 31 g ai/ha): 0; Corn plant response rating (0 to 100 scale) (corn (Zea mays); [19]): 20; Ryegrass, Italian plant response rating (0 to 100 scale) ([12]; Postemergence, 31 g ai/ha): 0; Ryegrass, Italian plant response rating (0 to 100 scale) [12, 19]: 60; Foxtail, Giant plant response rating (0 to 100 scale) [13, 20]: 0; Foxtail, Giant plant response rating (0 to 100 scale) [13, 21]: 30; Pigweed plant response rating (0 to 100 scale) [14, 20]: 0; Pigweed plant response rating (0 to 100 scale) [14, 21]: 10; Ragweed plant response rating (0 to 100 scale) ([15]; 31 g ai/ha): 0; Ragweed plant response rating (0 to 100 scale) ([15]; 125 g ai/ha): 0; Kochia plant response rating (0 to 100 scale) (kochia (Bassia scoparia) [16]; [20]): 0; Kochia plant response rating (0 to 100 scale) (kochia (Bassia scoparia) [16]; [21]): 0; Barnyardgrass plant response rating (0 to 100 scale) [17, 20]: 0; Barnyardgrass plant response rating (0 to 100 scale) [17, 21]: 0; Ryegrass, Italian plant response rating (0 to 100 scale) [18, 20]: 0; Ryegrass, Italian plant response rating (0 to 100 scale) [18, 21]: 10
C#CCO/N=C(\c1cc(Cl)cc(Cl)c1Cl)c1c(O)c(C)nn(C)c1=O [Compound 184]	0	0	0	0	0	0	60	90	60	80	10	20	60	100	0	0	10	10	50	60	Corn plant response rating (0 to 100 scale) (corn (Zea mays); Postemergence, 31 g ai/ha): 0; Corn plant response rating (0 to 100 scale) (corn (Zea mays); [19]): 10; Ryegrass, Italian plant response rating (0 to 100 scale) ([12]; Postemergence, 31 g ai/ha): 0; Ryegrass, Italian plant response rating (0 to 100 scale) [12, 19]: 80; Foxtail, Giant plant response rating (0 to 100 scale) ([13]; 125 g ai/ha): 100; Foxtail, Giant plant response rating (0 to 100 scale) [13, 20]: 60; Pigweed plant response rating (0 to 100 scale) ([14]; 125 g ai/ha): 60; Pigweed plant response rating (0 to 100 scale) [14, 20]: 50; Kochia plant response rating (0 to 100 scale) (kochia (Bassia scoparia) [16]; 125 g ai/ha): 0; Kochia plant response rating (0 to 100 scale) (kochia (Bassia scoparia) [16]; [20]): 0; Barnyardgrass plant response rating (0 to 100 scale) ([17]; 125 g ai/ha): 90; Barnyardgrass plant response rating (0 to 100 scale) [17, 20]: 0; Ryegrass, Italian plant response rating (0 to 100 scale) ([18]; 125 g ai/ha): 100; Ryegrass, Italian plant response rating (0 to 100 scale) [18, 20]: 0
